The numbers were not newly measured in US20240189229A1, “LIQUID PHARMACEUTICAL COMPOSITIONS OF BACLOFEN FOR ORAL ADMINISTRATION” (ANI Pharmaceuticals, Inc., priority 2022, published 2024), which cites them from elsewhere.

Like-named read-outs stand apart in the source and are kept apart here.

With `NCC(CC(=O)O)c1ccc(Cl)cc1` (centres unmarked) [Baclofen, 4-amino-3-(4-chlorophenyl)-butanoic acid], the “Concentration of baclofen obtained by dissolving” value reads like this: (aqueous solution of 0.1N HCl (Ahuja 1985)) “greater than 20 mg/mL”; (aqueous solution of 0.1N NaOH (Ahuja 1985)) “greater than 20 mg/mL”. Where the note is “chloroform”, the Solubility in chloroform entry is recorded as “insoluble”. The Solubility in methanol result (methanol) is reported as “very slightly soluble”. For the same compound, the Solubility in water result (water) was “slightly soluble”.
